Laboratory results taken from patent publication US20260049092A1, “ANTIBACTERIAL COMPOUNDS” (Blacksmith Medicines, Inc., priority 2022, published 2026).
In brackets after ≈: the same amount, converted by molar mass. Where two headings read alike, the source gives them in different places.

Key:
Test in all cases: Bacterial susceptibility testing (MIC, broth microdilution)
Format in all cases: cell-based
E. coli ATCC25922 = details: Escherichia coli
Procedure: (§1) Minimal inhibitory concentrations (MIC) were determined by the broth microdilution method in accordance with the Clinical and Laboratory Standards Institute (CLSI) guidelines. In brief, organism suspensions were adjusted to a final inoculum between 3×10^5 and 7×10^5 colony-forming units (CFU)/mL. Drug dilutions and inocula were made in sterile, cation adjusted Mueller-Hinton Broth (Beckton Dickinson). In wells, an inoculum volume of 100 μL was mixed to 2 μL of DMSO with 2-fold serial dilutions of drug. All inoculated microdilution trays were incubated in ambient air at 35° C. for 18-24 h. Following incubation, the lowest concentration of the drug that prevented visible growth (OD600 nm<0.05) was recorded as the MIC. Performance of the assay was monitored by the use of laboratory quality -control strains and compounds with defined MIC spectrum, in accordance with CLSI guidelines.

P. aeruginosa ATCC27853 = details: Pseudomonas aeruginosa
Procedure: as §1

P. aeruginosa PAO1 = details: Pseudomonas aeruginosa
Procedure: as §1

K. pneumoniae ATCC13883 = details: Klebsiella pneumoniae
Procedure: as §1

[1] = ATCC25922, broth microdilution, cation adjusted Mueller-Hinton Broth, 35° C., 18-24 h, read-out: E. coli ATCC25922 MIC
[2] = ATCC27853, broth microdilution, cation adjusted Mueller-Hinton Broth, 35° C., 18-24 h, read-out: P. aeruginosa ATCC27853 MIC
[3] = PAO1, broth microdilution, cation adjusted Mueller-Hinton Broth, 35° C., 18-24 h, read-out: P. aeruginosa PAO1 MIC
[4] = ATCC13883, broth microdilution, cation adjusted Mueller-Hinton Broth, 35° C., 18-24 h, read-out: K. pneumoniae ATCC13883 MIC
[5] = ATCC25922, read-out: E. coli ATCC25922 MIC
[6] = ATCC27853, read-out: P. aeruginosa ATCC27853 MIC
[7] = PAO1, read-out: P. aeruginosa PAO1 MIC
[8] = ATCC13883, read-out: K. pneumoniae ATCC13883 MIC

Row | Compound | MIC (E. coli ATCC25922; [1]) | MIC (P. aeruginosa ATCC27853; [2]) | MIC (P. aeruginosa PAO1; [3]) | MIC (K. pneumoniae ATCC13883; [4]) | MIC (E. coli ATCC25922; [5]) | MIC (P. aeruginosa ATCC27853; [6]) | MIC (P. aeruginosa PAO1; [7]) | MIC (K. pneumoniae ATCC13883; [8])
1 | C[C@H](O)c1nccn1[C@@H](C#Cc1ccc(-c2ccc(OC3COC[C@H]3O)c(F)c2)cc1)CO (single isomer, unassigned) [Compound 8] | 2 µg/mL (≈ 4.42 µM) | 4 µg/mL (≈ 8.84 µM) | 2 µg/mL (≈ 4.42 µM) | 4 µg/mL (≈ 8.84 µM) |  |  |  | 
2 | C[C@H](O)c1nccn1[C@@H](C#Cc1ccc(-c2ccc(O[C@@H]3C[C@H]3NCC#N)cc2)cc1)CO (racemic) [Compound 141, 2-(((rac-trans)-2-((4′-((S)-4-hydroxy-3-(2-((S)-1-hydroxyethyl)-1H-imidazol-1-yl)but-1-yn-1-yl)-[1,1′-biphenyl]-4-yl)oxy)cyclopropyl)amino) acetonitrile] |  |  |  |  | 1 µg/mL (≈ 2.26 µM) | 8 µg/mL (≈ 18.1 µM) | 2 µg/mL (≈ 4.52 µM) | 1 µg/mL (≈ 2.26 µM)
3 | C[C@H](O)c1nccn1[C@@H](C#Cc1ccc(-c2ccc(OC3CN(CCC#N)C3)cc2)cc1)CO [Compound 93, 3-(3-((4′-((S)-4-hydroxy-3-(2-((S)-1-hydroxyethyl)-1H-imidazol-1-yl)but-1-yn-1-yl)-[1,1′-biphenyl]-4-yl)oxy)azetidin-1-yl)propanenitrile] |  |  |  |  | 0.5 µg/mL (≈ 1.1 µM) | 4 µg/mL (≈ 8.76 µM) | 2 µg/mL (≈ 4.38 µM) | 1 µg/mL (≈ 2.19 µM)
4 | C[C@H](O)c1nccn1[C@@H](C#Cc1ccc(-c2ccc(NC3CC3)cc2)cc1)CO [Compound 81, (S)-4-(4′-(cyclopropylamino)-[1,1′-biphenyl]-4-yl)-2-(2-((S)-1-hydroxyethyl)-1H-imidazol-1-yl)but-3-yn-1-ol] |  |  |  |  | 0.25 µg/mL (≈ 0.645 µM) | 8 µg/mL (≈ 20.6 µM) | 2 µg/mL (≈ 5.16 µM) | 0.5 µg/mL (≈ 1.29 µM)
5 | C[C@H](O)c1nccn1[C@@H](C#Cc1ccc(-c2ccc(OC3CN(C(=O)N(C)C)C3)cc2)cc1)CO [Compound 95, 3-((4′-((S)-4-hydroxy-3-(2-((S)-1-hydroxyethyl)-1H-imidazol-1-yl)but-1-yn-1-yl)-[1,1′-biphenyl]-4-yl)oxy)-N,N-dimethylazetidine-1-carboxamide] |  |  |  |  | 0.5 µg/mL (≈ 1.05 µM) | 4 µg/mL (≈ 8.43 µM) | 2 µg/mL (≈ 4.21 µM) | 2 µg/mL (≈ 4.21 µM)
6 | C[C@H](O)c1nccn1[C@@H](C#Cc1ccc(-c2ccc(OC3CN(c4nccn4C)C3)cc2)cc1)CO [Compound 98, (S)-2-(2-((S)-1-hydroxyethyl)-1H-imidazol-1-yl)-4-(4′-((1-(1-methyl-1H-imidazol-2-yl)azetidin-3-yl)oxy)-[1,1′-biphenyl]-4-yl)but-3-yn-1-ol] |  |  |  |  | 0.5 µg/mL (≈ 1.03 µM) | 8 µg/mL (≈ 16.5 µM) | 4 µg/mL (≈ 8.27 µM) | 2 µg/mL (≈ 4.14 µM)
7 | C[C@H](O)c1nccn1[C@@H](C#Cc1ccc(-c2ccc(N[C@H]3COC[C@@H]3O)c(F)c2)cc1)CO (single isomer, unassigned) [Compound 60] | 2 µg/mL (≈ 4.43 µM) | 4 µg/mL (≈ 8.86 µM) | 4 µg/mL (≈ 8.86 µM) | 4 µg/mL (≈ 8.86 µM) |  |  |  | 
8 | C[C@H](O)c1nccn1[C@@H](C#Cc1ccc(-c2ccc(O[C@@H]3CCOC[C@H]3O)c(F)c2)cc1)CO (racemic) [Compound 51, (rac-trans)-4-((3-fluoro-4′-((S)-4-hydroxy-3-(2-((S)-1-hydroxyethyl)-1H-imidazol-1-yl)but-1-yn-1-yl)-[1,1′-biphenyl]-4-yl)oxy)tetrahydro-2H-pyran-3-ol] | 2 µg/mL (≈ 4.29 µM) | 8 µg/mL (≈ 17.1 µM) | 2 µg/mL (≈ 4.29 µM) | 4 µg/mL (≈ 8.57 µM) |  |  |  | 
9 | C[C@H](O)c1nccn1[C@@H](C#Cc1ccc(-c2ccc(O[C@@H]3COC[C@H]3O)cc2)cc1F)CO (racemic) [Compound 4, (rac-trans)-4-((3′-fluoro-4′-((S)-4-hydroxy-3-(2-((S)-1-hydroxyethyl)-1H-imidazol-1-yl)but-1-yn-1-yl)-[1,1′-biphenyl]-4-yl)oxy)tetrahydrofuran-3-ol] | 2 µg/mL (≈ 4.42 µM) | 8 µg/mL (≈ 17.7 µM) | 8 µg/mL (≈ 17.7 µM) | 4 µg/mL (≈ 8.84 µM) |  |  |  | 

Now from value to molecule, other results behind:

Row | MIC (E. coli ATCC25922; [1]) | MIC (P. aeruginosa ATCC27853; [2]) | MIC (P. aeruginosa PAO1; [3]) | MIC (K. pneumoniae ATCC13883; [4]) | Compound | MIC (E. coli ATCC25922; [5]) | MIC (P. aeruginosa ATCC27853; [6]) | MIC (P. aeruginosa PAO1; [7]) | MIC (K. pneumoniae ATCC13883; [8])
10 | 2 µg/mL (≈ 4.46 µM) | 8 µg/mL (≈ 17.8 µM) | 2 µg/mL (≈ 4.46 µM) | 2 µg/mL (≈ 4.46 µM) | C[C@H](O)c1nccn1[C@@H](C#Cc1ccc(-c2ccc(O[C@H]3CCOC[C@@H]3O)cc2)cc1)CO [Compound 73, (3S,4S)-4-((4′-((S)-4-hydroxy-3-(2-((S)-1-hydroxyethyl)-1H-imidazol-1-yl)but-1-yn-1-yl)-[1,1′-biphenyl]-4-yl)oxy)tetrahydro-2H-pyran-3-ol] |  |  |  | 
11 | 2 µg/mL (≈ 4.34 µM) | 2 µg/mL (≈ 4.34 µM) | 1 µg/mL (≈ 2.17 µM) | 4 µg/mL (≈ 8.69 µM) | CNC(=O)N1CC(Oc2ccc(-c3ccc(C#C[C@@H](CO)n4ccnc4[C@H](C)O)cc3)cc2)C1 [Compound 90, 3-((4′-((S)-4-hydroxy-3-(2-((S)-1-hydroxyethyl)-1H-imidazol-1-yl)but-1-yn-1-yl)-[1,1′-biphenyl]-4-yl)oxy)-N-methylazetidine-1-carboxamide] |  |  |  | 
12 | 0.5 µg/mL (≈ 1.16 µM) | 4 µg/mL (≈ 9.31 µM) | 1 µg/mL (≈ 2.33 µM) | 1 µg/mL (≈ 2.33 µM) | CC(=O)N1CC(c2ccc(-c3ccc(C#C[C@@H](CO)n4ccnc4[C@H](C)O)cc3)cc2)C1 [Compound 139, 1-(3-(4′-((S)-4-hydroxy-3-(2-((S)-1-hydroxyethyl)-1H-imidazol-1-yl)but-1-yn-1-yl)-[1,1′-biphenyl]-4-yl)azetidin-1-yl)ethan-1-one] |  |  |  | 
13 | 0.5 µg/mL (≈ 1.04 µM) | 4 µg/mL (≈ 8.29 µM) | 2 µg/mL (≈ 4.14 µM) | 4 µg/mL (≈ 8.29 µM) | C[C@H](O)c1nccn1[C@@H](C#Cc1ccc(-c2ccc(OC3CC4(C3)CN(CC#N)C4)cc2)cc1)CO (single isomer, unassigned) [Compound 67] |  |  |  | 
14 | 1 µg/mL (≈ 2.19 µM) | > 32 µg/mL | 2 µg/mL (≈ 4.38 µM) | 2 µg/mL (≈ 4.38 µM) | C[C@H](O)c1nccn1[C@@H](C#Cc1ccc(-c2ccc(O[C@H]3C[C@@H](NCC#N)C3)cc2)cc1)CO (racemic) [Compound 131, 2-((rac-cis)-3-((4′-((S)-4-hydroxy-3-(2-((S)-1-hydroxyethyl)-1H-imidazol-1-yl)but-1-yn-1-yl)-[1,1′-biphenyl]-4-yl)oxy)cyclobutyl)amino) acetonitrile] |  |  |  | 
15 | 1 µg/mL (≈ 2.11 µM) | 2 µg/mL (≈ 4.21 µM) | 2 µg/mL (≈ 4.21 µM) | 2 µg/mL (≈ 4.21 µM) | CNC(=O)CN1CC(Oc2ccc(-c3ccc(C#C[C@@H](CO)n4ccnc4[C@H](C)O)cc3)cc2)C1 (single isomer, unassigned) [Compound 100] |  |  |  | 
16 | 2 µg/mL (≈ 4.04 µM) | 4 µg/mL (≈ 8.07 µM) | 4 µg/mL (≈ 8.07 µM) | > 32 µg/mL | C[C@H](O)c1nccn1[C@@H](C#Cc1ccc(-c2ccc(O[C@H]3C[C@@H](NS(C)(=O)=O)C3)cc2)cc1)CO (racemic) [Compound 132, N-((rac-cis)-3-((4′-((S)-4-hydroxy-3-(2-((S)-1-hydroxyethyl)-1H-imidazol-1-yl)but-1-yn-1-yl)-[1,1′-biphenyl]-4-yl)oxy)cyclobutyl)methane-sulfonamide] |  |  |  | 
17 | 2 µg/mL (≈ 4.47 µM) | 4 µg/mL (≈ 8.94 µM) | 2 µg/mL (≈ 4.47 µM) | 4 µg/mL (≈ 8.94 µM) | C[C@H](O)c1nccn1[C@@H](C#Cc1ccc(-c2ccc(CN[C@@H]3COC[C@H]3O)cc2)cc1)CO (racemic) [Compound 65] |  |  |  | 
18 | 0.5 µg/mL (≈ 1.16 µM) | 4 µg/mL (≈ 9.25 µM) | 2 µg/mL (≈ 4.62 µM) | 2 µg/mL (≈ 4.62 µM) | C[C@H](O)c1nccn1[C@@H](C#Cc1ccc(-c2ccc(OCC3(C)COC3)cc2)cc1)CO [Compound 80, (S)-2-(2-((S)-1-hydroxyethyl)-1H-imidazol-1-yl)-4-(4′-((3-methyloxetan-3-yl)methoxy)-[1,1′-biphenyl]-4-yl)but-3-yn-1-ol] |  |  |  | 
19 | 1 µg/mL (≈ 2.17 µM) | 8 µg/mL (≈ 17.4 µM) | 8 µg/mL (≈ 17.4 µM) | 2 µg/mL (≈ 4.34 µM) | C[C@H](O)c1nccn1[C@@H](C#Cc1ccc(-c2ccc(OC3CN(CC#N)C3)c(F)c2)cc1)CO (single isomer, unassigned) [Compound 64] |  |  |  | 
20 | 0.62 µg/mL (≈ 1.54 µM) | > 32 µg/mL | 2 µg/mL (≈ 4.98 µM) | 1.5 µg/mL (≈ 3.74 µM) | C[C@H](O)c1nccn1[C@@H](C#Cc1ccc(-c2ccc(N3CCC3=O)cc2)cc1)CO (single isomer, unassigned) [Compound 109] |  |  |  | 
21 | 0.5 µg/mL (≈ 1.09 µM) | 1 µg/mL (≈ 2.18 µM) | 0.5 µg/mL (≈ 1.09 µM) | 2 µg/mL (≈ 4.35 µM) | CNC(=O)[C@H]1C[C@@H](Oc2ccc(-c3ccc(C#C[C@@H](CO)n4ccnc4[C@H](C)O)cc3)cc2)C1 (racemic) [Compound 137, (rac-cis)-3-((4′-((S)-4-hydroxy-3-(2-((S)-1-hydroxyethyl)-1H-imidazol-1-yl)but-1-yn-1-yl)-[1,1′-biphenyl]-4-yl)oxy)-N-methylcyclobutane-1-carboxamide] |  |  |  | 
22 | 1 µg/mL (≈ 2.23 µM) | 8 µg/mL (≈ 17.8 µM) | 2 µg/mL (≈ 4.46 µM) | 2 µg/mL (≈ 4.46 µM) | C[C@H](O)c1nccn1[C@@H](C#Cc1ccc(-c2ccc(O[C@@H]3CCOC[C@H]3O)cc2)cc1)CO [Compound 72, (3R,4R)-4-((4′-((S)-4-hydroxy-3-(2-((S)-1-hydroxyethyl)-1H-imidazol-1-yl)but-1-yn-1-yl)-[1,1′-biphenyl]-4-yl)oxy)tetrahydro-2H-pyran-3-ol] |  |  |  | 
23 | 0.25 µg/mL (≈ 0.597 µM) | 4 µg/mL (≈ 9.56 µM) | 2 µg/mL (≈ 4.78 µM) | 0.5 µg/mL (≈ 1.19 µM) | C[C@H](O)c1nccn1[C@@H](C#Cc1ccc(-c2ccc(OC3(C)COC3)cc2)cc1)CO [Compound 136, (S)-2-(2-((S)-1-hydroxyethyl)-1H-imidazol-1-yl)-4-(4′-((3-methyloxetan-3-yl)oxy)-[1,1′-biphenyl]-4-yl)but-3-yn-1-ol] |  |  |  | 
